Ki data for one molecule are collected here from BindingDB's records for doi:10.1021/jm00026a002 (Upjohn, 1995).

The target of this assay is T1, Dimer of Gag-Pol polyprotein [489-587] (Human immunodeficiency virus 1, UniProt P12497).
T1 construct: 489-587
Description: Protease Inhibition Assay. The settings on record: pH 5; 22 °C. The text has this:
HIV-1 protease was purified and refolded from E. coli inclusion bodies. […] In the presence of HIV-l protease, the substrate is rapidly cleaved into two parts. The biotinylated amino terminal fragment binds to the avidin beads while the FITC-containing carboxy1 terminal fragment is removed through the membrane. […] The bound fluorescence is obtained by processing on an IDEXX Screen Machine. Determination of Ki values with this assay requires analysis under conditions in which substrate concentration resides substantially below Km and the inhibitor concentrations greatly exceeds the Ki value and the enzyme concentration.

By Ki is commonly meant the dissociation constant of the complex between target and ligand, obtained from inhibition or displacement. High values mean a looser hold on the target, low ones a stronger hold on the target. `O=c1oc2c(c(O)c1[C@H](c1cccc(NS(=O)(=O)c3ccccc3)c1)C1CC1)CCCCCC2` [N-{3-[(S)-cyclopropyl({4-hydroxy-2-oxo-2H,5H,6H,7H,8H,9H,10H-cycloocta[b]pyran-3-yl})methyl]phenyl}benzenesulfonamide] registered a Ki of 3 nM.
